By % inhibition is commonly meant the relative decrease from the control value, in per cent. A higher % inhibition goes with a response far below the control. Broadly, the IC50 is the concentration that inhibits the measured activity by half.

Data on 29 compounds can be found in patent US5629322A, “Cyclic amidine analogs as inhibitors of nitric oxide synthase” (priority 1995, dated 1997).

One experiment deals with NO synthase. As to the kind of experiment: Assay Protocol for NOS activity: % inhibition at 50 uM (formation of L-[3H]citrulline from L-[3H]arginine). The class given is biochemical. Here is the method:
(§1) Assay Protocol for NOS activity
(§2) NOS activity is measured as the formation of L-[2,3,4,5-^3 H]Citrullinefrom L-[2,3,4,5-^3 H]Arginine. The incubation buffer (100 μL) contained; 100 mM TES, pH 7.5, 5 μM FAD, 5 μM FMN, 10 μM BH4, 0.5 mM NADPH, 0.5 mM DTT, 0.5 mg/mL BSA, 2 mM CaCl2, 10 μg/mL calmodulin (bovine), 1 μM L-Arg, 0.2 μCi L-[2,3,4,5-^3 H]Arg, and the inhibitor in aqueous DMSO (max. 5%). The reaction is initiated by addition of enzyme. Incubations are performed at room temperature for 30 minutes and stopped by the addition of an equal volume of quenching buffer consisting of 200 mM sodium citrate, pH 2.2, 0.02% sodium azide. Reaction products are separated by passing through a cation exchange resin and quantitated as cpm by scintillation counting.

A further experiment addresses ecNOS (Homo sapiens, UniProt P29474). As to the kind of experiment: NOS activity assay, ecNOS (L-[3H]citrulline formation). It is filed as biochemical. Here is the method: as §1, §2
The target in another experiment is ncNOS (Homo sapiens, UniProt P29475). As to the kind of experiment: biochemical. As to conditions: read-out: IC50 ncNOS.
For the next experiment, the target named is iNOS (Homo sapiens, UniProt P35228). As to the kind of experiment: NOS activity assay, iNOS (L-[3H]citrulline formation). The class given is biochemical. Here is the method: as §1, §2

Structures can show the parent of a compound that is named as a salt. Where two headings read alike, the source gives them in different places.

Sequence of ncNOS (P29475 whole entry): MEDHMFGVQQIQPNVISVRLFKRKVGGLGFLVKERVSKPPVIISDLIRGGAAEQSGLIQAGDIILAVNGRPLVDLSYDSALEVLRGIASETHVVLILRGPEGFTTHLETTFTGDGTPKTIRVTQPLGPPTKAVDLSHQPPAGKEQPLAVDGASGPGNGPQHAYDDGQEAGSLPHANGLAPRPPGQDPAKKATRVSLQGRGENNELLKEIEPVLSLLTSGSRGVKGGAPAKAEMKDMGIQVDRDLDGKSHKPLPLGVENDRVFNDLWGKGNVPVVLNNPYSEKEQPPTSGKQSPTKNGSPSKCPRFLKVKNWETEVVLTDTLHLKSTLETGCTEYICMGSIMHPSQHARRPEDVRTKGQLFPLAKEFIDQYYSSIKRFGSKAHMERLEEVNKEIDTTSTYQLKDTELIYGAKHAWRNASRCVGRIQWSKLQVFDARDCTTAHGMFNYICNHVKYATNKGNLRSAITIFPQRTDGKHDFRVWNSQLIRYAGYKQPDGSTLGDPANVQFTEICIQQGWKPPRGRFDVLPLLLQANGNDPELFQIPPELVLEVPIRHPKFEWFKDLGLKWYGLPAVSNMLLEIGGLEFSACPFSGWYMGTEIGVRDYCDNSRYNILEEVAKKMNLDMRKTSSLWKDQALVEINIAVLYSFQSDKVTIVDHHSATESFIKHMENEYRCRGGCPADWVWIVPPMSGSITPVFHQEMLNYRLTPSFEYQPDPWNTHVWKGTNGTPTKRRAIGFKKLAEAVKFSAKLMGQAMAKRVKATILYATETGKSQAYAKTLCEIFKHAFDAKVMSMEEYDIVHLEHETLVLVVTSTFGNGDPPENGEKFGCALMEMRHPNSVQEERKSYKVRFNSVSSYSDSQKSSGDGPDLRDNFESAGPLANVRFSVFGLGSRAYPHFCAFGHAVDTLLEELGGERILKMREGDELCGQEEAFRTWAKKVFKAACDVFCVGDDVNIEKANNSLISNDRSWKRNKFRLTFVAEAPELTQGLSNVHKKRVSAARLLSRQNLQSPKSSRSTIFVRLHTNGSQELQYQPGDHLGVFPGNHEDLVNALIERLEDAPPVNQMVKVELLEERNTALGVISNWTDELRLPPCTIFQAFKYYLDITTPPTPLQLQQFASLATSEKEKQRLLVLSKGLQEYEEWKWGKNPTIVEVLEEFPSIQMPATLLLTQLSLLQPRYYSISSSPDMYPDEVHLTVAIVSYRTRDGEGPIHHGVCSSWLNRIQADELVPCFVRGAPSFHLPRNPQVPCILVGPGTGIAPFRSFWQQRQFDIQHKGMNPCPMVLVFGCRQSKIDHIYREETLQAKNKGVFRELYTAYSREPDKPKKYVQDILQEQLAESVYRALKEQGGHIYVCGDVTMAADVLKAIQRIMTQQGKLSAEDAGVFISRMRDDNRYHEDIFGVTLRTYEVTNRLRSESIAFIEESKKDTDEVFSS

On to `N=C1CCCCCN1`, for which the “% inhibition” value with NO synthase (Table 3) is reported as 96%.

For `N=C1CCCCCCN1`, the “% inhibition” value in the experiment with NO synthase (Table 3) came out at 100%.

For `N=C1CCCCCCCN1`, the “% inhibition” value in the experiment with NO synthase (Table 3) worked out at 100%.

Take `CC1CCC(=N)N1` (centres unmarked) [Table 1: CH3, H, H]: in the experiment with NO synthase (Table 1), the “% inhibition” value was determined as 98%.

Regarding `N=C1CCCN1` [Table 1: H, H, H], in the experiment on NO synthase (Table 1), the “% inhibition” value is given as 90%.

Regarding `c1ccc(CNC2=NCCCCC2)cc1` [Table 2: CH2 -phenyl], the “% inhibition” value in the experiment on NO synthase (Table 2) stood at 3%.

With `CCNC1=NCCCCC1` [Table 2: CH2 CH3], in the experiment on NO synthase (Table 2), the “% inhibition” value worked out at 55%.

For the compound `CNC1=NCCCCC1` [Table 2: CH3], the “% inhibition” value with NO synthase (Table 2) was found to be 3%.

Regarding `C1CCN=C(NC2CCCCC2)CC1` [Table 2: cyclohexyl], the “% inhibition” value in the experiment on NO synthase (Table 2) worked out at 8%.

Take `CCCC1CN=C(N)C1` (centres unmarked) [Table 4: H, n-C3H7, H, H, H, 2-Imino-4-propylpyrrolidine hydrochloride]: the IC50 at ecNOS (Table 4, read-out: IC50 ecNOS) was > 50 µM; at ncNOS (Table 4), > 50 µM; on iNOS (Table 4, read-out: IC50 iNOS), ≤ 50 µM.

Turning to `N=C1NCCC1S` (centres unmarked) [Table 4: SH, H, H, H, H], the half-inhibitory concentration (IC50) at ecNOS (Table 4, read-out: IC50 ecNOS) was ≤ 50 µM; at ncNOS (Table 4), ≤ 1 µM; at iNOS (Table 4, read-out: IC50 iNOS), ≤ 50 µM.

For the compound `NC1=NCCc2ccccc21` [Table 5: C, (CH)4, H, H, H, H], the IC50 on ecNOS (Table 5, read-out: IC50 ecNOS) was ≤ 50 µM; on ncNOS (Table 5), ≤ 10 µM; on iNOS (Table 5, read-out: IC50 iNOS), ≤ 10 µM.

As to `CC1CNC(=N)C(C)C1` (centres unmarked) [Table 5: CH2, CH3, H, CH3, H, H, H, 2-Imino-3,5-dimethylpiperidine hydrochloride], the 50% inhibitory concentration (IC50) at ecNOS (Table 5, read-out: IC50 ecNOS) is ≤ 50 µM; at ncNOS (Table 5) it was ≤ 1 µM; at iNOS (Table 5, read-out: IC50 iNOS), ≤ 50 µM.

In the case of `CC1CCCN=C1N` (centres unmarked) [Table 5: CH2, CH3, H, H, H, H, H, 2-Imino-3-methylpiperidine hydrochloride], the IC50 was ≤ 10 µM at ecNOS, ≤ 1 µM on ncNOS (Table 5) and ≤ 10 µM against iNOS.

`CC1(C)CCC(=N)NC1` [Table 5: CH2, H, H, (CH3)2, H, H, H, 2-Imino-5,5-dimethylpiperidine hydrochloride]: the IC50 was ≤ 50 µM on ecNOS (Table 5, read-out: IC50 ecNOS); ≤ 10 µM on ncNOS (Table 5); ≤ 10 µM on iNOS (Table 5, read-out: IC50 iNOS).

In the case of `NC1=Nc2ccccc2CC1` [Table 5: CH2, H, H, (CH)4, H, H, 3,4-Dihydro-2-aminoquinoline hydrochloride], the IC50 was > 50 µM on ecNOS (Table 5, read-out: IC50 ecNOS); ≤ 10 µM at ncNOS (Table 5); ≤ 50 µM at iNOS (Table 5, read-out: IC50 iNOS).

As for `N=C1CCC(C(F)(F)F)CN1` (centres unmarked) [Table 5: CH2, H, H, CF3, H, H, H, 2-Imino-5-trifluoro-piperidine], the 50% inhibitory concentration (IC50) on ecNOS (Table 5, read-out: IC50 ecNOS) is > 50 µM; at ncNOS (Table 5) it was > 50 µM; at iNOS (Table 5, read-out: IC50 iNOS), ≤ 10 µM.

As to `CCCOC1CCC(=N)NC1` (centres unmarked) [Table 5: CH2, H, H, O-n-C3H7, H, H, H, 2-Imino-5-n-propyloxy-piperidine, acetic acid salt], the half-maximal inhibitory concentration (IC50) on ecNOS (Table 5, read-out: IC50 ecNOS) was ≤ 10 µM; on ncNOS (Table 5) it was ≤ 10 µM; on iNOS (Table 5, read-out: IC50 iNOS) it was ≤ 1 µM.

Take `CC1C(=N)NCC2CCCC21` (stereo not drawn) [Table 5: CH, CH3, (CH2)3, H, H, H, 4-Imino-5-cis-methyl-3-azabicyclo[4.3.0]nonane, hydrochloride]: the IC50 at ecNOS (Table 5, read-out: IC50 ecNOS) is > 50 µM; on ncNOS (Table 5) it was ≤ 10 µM; on iNOS (Table 5, read-out: IC50 iNOS), ≤ 10 µM.

Regarding `CO[C@@H]1CNC(=N)C[C@@H]1C` [Table 5: CH, H, (S)CH3, (S)OCH3, H, H, H, hydrochloride], the 50% inhibitory concentration (IC50) on ecNOS (Table 5, read-out: IC50 ecNOS) is ≤ 1 µM; at ncNOS (Table 5), ≤ 1 µM; at iNOS (Table 5, read-out: IC50 iNOS) it was ≤ 1 µM.

For the compound `C[C@H]1CC(=N)NC[C@H]1O` [Table 5: CH, H, (S)CH3, (S)OH, H, H, H, 2-Imino-5(S)-hydroxy-4(S)-methyl-piperidine, hydrochloride], the IC50 is ≤ 10 µM at ecNOS (Table 5, read-out: IC50 ecNOS); ≤ 1 µM at ncNOS (Table 5); ≤ 1 µM at iNOS (Table 5, read-out: IC50 iNOS).

For `CC1CNC(=N)CC1C` (centres unmarked) [Table 5: CH, H, CH3, CH3, H, H, H], the IC50 was ≤ 1 µM at ecNOS (Table 5, read-out: IC50 ecNOS); ≤ 1 µM at ncNOS (Table 5); ≤ 1 µM at iNOS (Table 5, read-out: IC50 iNOS).

For `CCCC1CCN=C(N)C1` (centres unmarked) [Table 5: CH, H, n-C3H7, H, H, H, H, 2-Imino-4-propylpiperidine hydrochloride], the IC50 was > 50 µM on ecNOS (Table 5, read-out: IC50 ecNOS); > 50 µM on ncNOS (Table 5); ≤ 10 µM at iNOS (Table 5, read-out: IC50 iNOS).

In the case of `CC(C)(C)OC(=O)N1CCNC(=N)C1` [Table 5: N, H, CO2-t-C4H9, H, H, H, H, 4-t-Butoxycarbonyl-2-iminopiperazine hydrochloride], the IC50 at ecNOS (Table 5, read-out: IC50 ecNOS) was > 50 µM; at ncNOS (Table 5), > 50 µM; on iNOS (Table 5, read-out: IC50 iNOS) it was ≤ 50 µM.

In the case of `N=C1CNC2CCCCC2N1` (centres unmarked) [Table 5: N, H, H, (CH2)4, H, H], the IC50 is > 50 µM on ecNOS, ≤ 50 µM at ncNOS (Table 5) and ≤ 10 µM on iNOS.

For `N=C1CNCCN1` [Table 5: N, H, H, H, H, H, H, 2-Iminopiperazine hydrochloride], the IC50 is > 50 µM on ecNOS (Table 5, read-out: IC50 ecNOS); ≤ 50 µM at ncNOS (Table 5); ≤ 50 µM at iNOS (Table 5, read-out: IC50 iNOS).

With `N=C1CSCCN1` [Table 5: S, H, --, H, H, H, H, 3-Iminothiomorpholine hydrochloride], the half-maximal inhibitory concentration (IC50) was ≤ 10 µM at ecNOS (Table 5, read-out: IC50 ecNOS); ≤ 1 µM at ncNOS (Table 5); ≤ 1 µM on iNOS (Table 5, read-out: IC50 iNOS).

Turning to `N=C1CCCN1` [drawing 15], the “% inhibition” value in the experiment on NO synthase (Table 3) was 90%.

For `N=C1CCCCN1` [drawing 16], in the experiment on NO synthase (Table 3), the “% inhibition” value stood at 100%.
